Results on four compounds are retold here after paper PMC10451623 (Antioxidants, 2023).

One may read the EC50 as the midpoint of the concentration-response curve.

In experiment [1] the target is T1, PPARα-LBD (Homo sapiens, UniProt Q07869).
T1 sequence (Q07869 200-468): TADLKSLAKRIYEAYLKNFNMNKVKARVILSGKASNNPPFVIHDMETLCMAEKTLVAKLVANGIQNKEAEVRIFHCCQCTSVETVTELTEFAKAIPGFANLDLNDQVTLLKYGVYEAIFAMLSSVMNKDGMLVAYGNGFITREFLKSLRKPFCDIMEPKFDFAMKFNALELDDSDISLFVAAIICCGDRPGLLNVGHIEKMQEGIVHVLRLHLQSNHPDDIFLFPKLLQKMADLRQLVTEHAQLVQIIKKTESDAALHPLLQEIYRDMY
Briefly: TR-FRET SRC1 coactivator recruitment assay. The class given is biochemical. More on the design: Human PPARα-LBD (amino acids 200–468); made in house; host or cells: Rosetta (DE3) pLysS (E. coli). To be noted: for EC50: TR-FRET, SRC1 peptide, read-out: EC50, SRC1 recruitment to PPARα-LBD. As to the method:
(§1) Subsequently, 5 µL of 4 nM Eu-W1024-labeled anti-6×His antibody/80 nM ULight-Streptavidin (PerkinElmer) was added to each well, and the microplate was incubated in the dark for 2 h, at room temperature. […] The nonlinear fitting and the calculation of the EC50 were performed using the Prism 9 software (GraphPad, San Diego, CA, USA).
(§2) The ligand-bound activated forms of PPARs are stabilized by associations with specific coactivators, thereby enabling the regulation of specific gene expression.
(§3) Figure 2 TR-FRET-based LBD-mediated human PPARα/δ/γ coactivator recruitment assay. […] Data are presented as the mean ± SE of three or four independent experiments with duplicate samples, and the calculated EC50 values are shown.
Background: Time-resolved FRET reads energy transfer from a long-lived donor to a nearby acceptor.

A further experiment deals with T2, human PPARγ (Homo sapiens, UniProt P37231).
T2 construct: expressed in transfected cells; host or cells: COS-7
T2 sequence (P37231 238-503 limits assumed): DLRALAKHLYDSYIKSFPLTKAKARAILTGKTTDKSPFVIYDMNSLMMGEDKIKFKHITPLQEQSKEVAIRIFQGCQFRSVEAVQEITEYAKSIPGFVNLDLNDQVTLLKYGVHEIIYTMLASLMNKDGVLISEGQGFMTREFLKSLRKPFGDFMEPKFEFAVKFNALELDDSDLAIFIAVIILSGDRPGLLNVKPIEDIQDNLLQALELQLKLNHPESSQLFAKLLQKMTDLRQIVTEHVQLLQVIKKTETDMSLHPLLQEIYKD
Briefly: Transactivation assay (GAL4–hPPARγ-LBD chimera, luciferase reporter, COS-7 cells). The class given is cell-based. To be noted: for Emax: 100% = 1 µM GW1929, read-out: Efficacy, PPARγ transactivation (% of the maximal response); for EC50: GAL4–hPPARγ-LBD. The procedure:
The pSG5-GAL–hPPARα/δ/γ plasmids express fusion proteins comprising the yeast transcription factor GAL4 DNA-binding domain and each of the human PPARα/δ/γ-LBDs. The MH100(UAS)×4-tk-Luc plasmid contains four copies of the MH100 GAL4 binding site and the Firefly luciferase gene. The cells were transfected with those plasmids and were treated with various PPAR ligands, and both Firefly and Renilla luciferase activities were measured using the Dual-Glo Luciferase Assay System (Promega, Madison, WI, USA) as described previously. […] GW1929 was purchased from Sigma-Aldrich (St. Louis, MO, USA).
For the undertaking of the comparison of the potency, efficacy, and selectivity of the five PPAR ligands (Figure 1A) against the PPAR subtypes, we evaluated their PPARα/δ/γ activation using three different methods: a cell-based transactivation assay, a coactivator recruitment assay, and a thermal stability assay, as we previously performed on three fibrates (namely, bezafibrate, fenofibric acid, and pemafibrate). The cell-based transactivation assay utilizing the Gal4–PPAR-LBD system is the most widely used method for the determination of PPAR activation by certain ligands, although their responses depend on the used cell types in which several coactivators with altered functions are differentially expressed.
Figure 1 LBD-mediated human PPARα/δ/γ transactivation by PPAR ligands. (A) Chemical structures of the five PPAR ligands used in this study. […] Data are presented as the mean ± standard error (SE) of three independent experiments with duplicate samples.
(A reporter such as luciferase makes a cellular process visible.)

Experiment [2] addresses T1, PPARα-LBD. In words: TR-FRET PGC1α coactivator recruitment assay. The class given is biochemical. Further details: Human PPARα-LBD (amino acids 200–468); made in house; host or cells: Rosetta (DE3) pLysS (E. coli). To be noted: PGC1α peptide, read-out: EC50, PGC1α recruitment to PPARα-LBD. As to the method: as §1, §2, §3
A further experiment has as its target T3, PPARγ-LBD (Homo sapiens, UniProt P37231).
T3 sequence (P37231 203-477 isoform P37231-2): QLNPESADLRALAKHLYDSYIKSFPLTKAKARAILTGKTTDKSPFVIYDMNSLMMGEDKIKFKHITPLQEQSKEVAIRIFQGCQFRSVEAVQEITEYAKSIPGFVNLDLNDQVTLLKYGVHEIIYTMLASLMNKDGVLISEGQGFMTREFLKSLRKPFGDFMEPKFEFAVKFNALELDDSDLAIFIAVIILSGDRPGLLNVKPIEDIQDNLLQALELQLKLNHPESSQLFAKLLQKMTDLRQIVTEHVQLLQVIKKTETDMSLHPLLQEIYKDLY
Briefly: TR-FRET PGC1α coactivator recruitment assay. The class given is biochemical. To be noted: PGC1α peptide, read-out: EC50, PGC1α recruitment to PPARγ-LBD. More on the design: PPARγ-LBD (amino acids 203–477 in isoform 1); made in house; host or cells: Rosetta (DE3) pLysS (E. coli). As to the method:
as §1, §2, §3

The next experiment has as its target T4, PPARδ-LBD (Homo sapiens, UniProt Q03181).
T4 sequence (Q03181 170-441): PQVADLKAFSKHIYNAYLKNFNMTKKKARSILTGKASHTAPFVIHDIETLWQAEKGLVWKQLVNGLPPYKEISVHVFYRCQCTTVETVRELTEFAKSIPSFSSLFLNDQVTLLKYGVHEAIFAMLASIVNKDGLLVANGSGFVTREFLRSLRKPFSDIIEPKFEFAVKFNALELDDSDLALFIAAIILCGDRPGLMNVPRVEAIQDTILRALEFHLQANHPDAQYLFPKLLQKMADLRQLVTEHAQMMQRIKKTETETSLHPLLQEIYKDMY
Briefly: TR-FRET SRC1 coactivator recruitment assay. Further details: PPARδ-LBD (amino acids 170–441); made in house; host or cells: Rosetta (DE3) pLysS (E. coli). The class given is biochemical. To be noted: for EC50: TR-FRET, SRC1 peptide, read-out: EC50, SRC1 recruitment to PPARδ-LBD. The procedure: as §1, §2, §3

Regarding `CSc1ccc(C(=O)/C=C/c2cc(C)c(OC(C)(C)C(=O)O)c(C)c2)cc1` [elafibranor], the “Efficacy, SRC1 recruitment to PPARα-LBD” value at PPARα-LBD [1] (100% = 1 µM GW7647) turned out to be 59.2%. Moreover, the EC50 turned out to be 4.95 µM at PPARα-LBD [1], 2.12 µM at human PPARγ, 6.93 µM at PPARα-LBD [2] and 15.5 µM on PPARγ-LBD. On human PPARγ, the Emax is 38.5%.
As to `O=C(O)CCCc1cc2cc(Cl)ccc2n1S(=O)(=O)c1ccc2ncsc2c1` [lanifibranor], the EC50 at PPARα-LBD [1] worked out at 13.8 µM; on PPARδ-LBD, 4.44 µM; at human PPARγ it was 0.572 µM; on PPARα-LBD [2], 10 µM; at PPARγ-LBD, 4.65 µM. The Emax at human PPARγ turned out to be 24.9%.
In the case of `CCO[C@@H](Cc1ccc(OCCn2c(C)ccc2-c2ccc(SC)cc2)cc1)C(=O)O` [saroglitazar], the EC50 on PPARα-LBD [1] was 1.04 µM; on PPARδ-LBD, above 100 µM; at human PPARγ, 0.311 µM; at PPARα-LBD [2] it was 4.11 µM; on PPARγ-LBD, 1.03 µM. At human PPARγ, the Emax was determined as 89.4%.
Regarding `CCO[C@H](COc1ccc(C(F)(F)F)cc1)CSc1ccc(OCC(=O)O)c(C)c1` [seladelpar], the EC50 at PPARα-LBD [1] was above 1 µM; at PPARδ-LBD, 0.111 µM; on human PPARγ, 3.53 µM; on PPARα-LBD [2], 3.84 µM; on PPARγ-LBD, 19.4 µM. In addition, the “Efficacy, SRC1 recruitment to PPARδ-LBD” value on PPARδ-LBD (100% = 1 µM GW501516) was 83.0%. Besides, the Emax on human PPARγ was found to be 58.5%.
